Data: patent US11479563B2, “Biphenyl compound or salt thereof” (TAIHO PHARMACEUTICAL CO., LTD., priority 2017, dated 2022)
pIC50: −log10 of the molar value. Where a name gives a salt, the structure may show the parent alone.

Tests used:
[1] = system: NCI-H146 cells (human small-cell lung cancer cell lines); assay: Cell-growth inhibition test: NCI-H146 cells; assay type: cell-based; conditions: NCI-H146 cells; read-out: Cell-Growth Inhibition Test: NCI-H146 Cells IC50
How it was run: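 NCI-H146 small-cell lung cancer cells were cultured with compound or DMSO for 10 days at 37°C, 5% CO2. Viability read by CellTiter-Glo luminescence; growth rate (%) = treated/DMSO luminescence × 100.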

[2] = system: HEL cells (human acute myelocytic leukemia cell lines); conditions: read-out: Cell-Growth Inhibition Test: HEL Cells IC50;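 note: viable cell count by CellTiter-Glo 2.0 luminescence after 5 days of culture at 37 °C, growth expressed relative to DMSO-only wells as 100%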
Protocol: (§1) Under the following conditions, an in vitro cell-growth inhibition test was performed with respect to HEL cells (human acute myelocytic leukemia cell lines), NCI-H1417 cells (human small-cell lung cancer cell lines), and NCI-H146 cells (human small-cell lung cancer cell lines).
(§2) The cells with the compound of the present invention or with dimethylsulfoxide alone were cultured at 37° C. in a 5% carbon-dioxide-containing incubator for 5 days (HEL cells) or 10 days (NCI-H1417 cells and NCI-H146 cells). After culture, the plate was allowed to stand at room temperature for 30 minutes, and 100 μL of the supernatant was removed from each well to leave 100 μL of the cell culture solution. To each well containing the remaining 100 μL of the cell culture solution, the same amount of CellTiter-Glo 2.0 Assay (Promega, Cat #: G9242) was added. The microplate was shaken with a plate mixer for 1 minute and then allowed to stand in a dark place for 10 minutes. Thereafter, the luminescence intensity of viable cells in each well was measured using a microplate reader (PerkinElmer, EnSpire). […] Cell growth rate (%)=T/C×100 T: The luminescence intensity in a well to which the compound of the present invention was added (count per second) C: The luminescence intensity in a well to which dimethylsulfoxide alone was added (count per second)

[3] = system: NCI-H1417 cells (human small-cell lung cancer cell lines); conditions: read-out: Cell-Growth Inhibition Test: NCI-H1417 Cells IC50;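 note: growth of NCI-H1417 cells over 10 days at 37 °C, read as viable-cell luminescence by CellTiter-Glo 2.0, expressed as % of DMSO-only control wells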
Protocol: as §1, §2

Compound: 2′-(6,7-difluoro-1-(2-hydroxy-2-methylpropyl)-1H-indol-5-yl)-3-fluoro-5′-(2,7-diazaspiro[3.4]octane-6-carbonyl)-[1,1′-biphenyl]-4-carbonitrile [Example 200]
- pIC50 [1]: 8.64
- pIC50 [2]: 8.43
- pIC50 [3]: 8.91

Compound: 3-fluoro-2′-(6-fluoro-1-(2-hydroxy-2-methylpropyl)-1H-indazol-5-yl)-5′-(2,7-diazaspiro[3.4]octane-6-carbonyl)-[1,1′-biphenyl]-4-carbonitrile [Example 199]
- pIC50 [1]: 8.26
- pIC50 [2]: 7.66
- pIC50 [3]: 8.34

Compound: Cc1c(F)c(-c2ccc(C(=O)N3[C@@H]4CC[C@H]3[C@@H](N)C4)cc2-c2ccc(C#N)c(F)c2)cc2nnn(CC3(O)CCC3)c12 (single isomer, unassigned) [Example 270]
- pIC50 [1]: 9.43
- pIC50 [2]: 9.59
- pIC50 [3]: 9.74

Compound: Cc1ccc(-c2ccc(CN3[C@H]4CC[C@@H]3[C@H](N)C4)cc2-c2ccc([N+](=O)[O-])cc2)cc1 (single isomer, unassigned) [Example 296, dihydrochloride]
- pIC50 [2]: 8.23
- pIC50 [3]: 7.42

Compound: Cc1noc2cc(-c3ccc(C(=O)N4[C@@H]5CC[C@H]4C[C@@H](N)C5)cc3-c3ccc(C#N)c(F)c3)c(F)cc12 [Example 179, 5′-((3-endo)-3-amino-8-azabicyclo[3.2.1]octane-8-carbonyl)-3-fluoro-2′-(5-fluoro-3-methylbenzo[d]isoxazol-6-yl)-[1,1′-biphenyl]-4-carbonitrile]
- pIC50 [1]: 8.98
- pIC50 [2]: 8.82
- pIC50 [3]: 8.47
